In US8399429B2, “Uracyl cyclopropyl nucleotides” (Janssen Products, LP, priority 2008, dated 2013):

Legend:
[1] = Cellular toxicity in the HIV cell-line (MT-4); format: cell-based, human; details: human
Experimental: (§1) Compounds of the invention were tested for their potency against wild type human immunodeficiency virus (HIV). Antiviral activity was evaluated using a cellular assay performed according to the following procedure. The human T-cell line MT4 was engineered with Green Fluorescent Protein (GFP) and a HIV-specific promoter, HIV-1 long terminal repeat (LTR). This cell line, designated MT4 LTR-EGFP, can be used for the in vitro evaluation of anti-HIV activity of investigational compounds. In HIV-1 infected cells, the Tat protein is produced, which upregulates the LTR promotor and eventually leads to stimulation of the GFP reporter production, allowing to measure ongoing HIV-infection fluorometrically. Effective concentration values such as 50% effective concentration (EC50) can be determined and are usually expressed in μM. An EC50 value is defined as the concentration of test compound that reduces the fluorescence of HIV-infected cells by 50%. Monitoring of HIV-1 infection was done using a scanning microscope. Image analysis allows very sensitive detection of viral infection. Measurements were done before cell necrosis, which usually takes place about five days after infection, in particular measurements were performed three days after infection. The column IIIB in the table list the EC50 values against the wild type strain IIIB.
Also the HIV activity is given (EC50 HIV (μM)) and the cellular toxicity in the HIV cell-line (CC50 (μM) (MT-4)).

[2] = test system: wild type human immunodeficiency virus (HIV) strain IIIB; assay: HIV assay in MT4 LTR-EGFP cells; format: cell-based, HIV-1; details: Human immunodeficiency virus 1, IIIB, 72 h, three days after infection
Experimental: as §1

[3] = Cellular toxicity in Huh7-CMV-Luc replicon assay; format: cell-based; details: human, Huh7-CMV-Luc cells, three days incubation, Luc activity; read-out: CC50 (μM) (Huh-7)
Experimental: Cellular toxicity was determined in the Huh7-CMV-Luc replicon assay. Replicon cells (2500 cells/well), stably transformed with a luciferase reporter gene under control of the cytomegalovirus (CMV) constitutive promotor, were cultured in the presence or absence of test compound concentrations. After three days of incubation at 37° C. in a humidified 5% CO2 atmosphere, cell proliferation was quantified by measuring the Luc activity, and expressed as CC50 values (cytotoxicity, 50% inhibitory concentration of cell growth). Tests were performed in 384-well plates.

[4] = test system: HCV replicon (Huh-7 luc/neo, NS3-NS5B of HCV type 1b); assay: HCV replicon assay (Huh-Luc, luciferase readout); format: cell-based; details: Huh-Luc cells, HCV type 1b replicon, three days incubation, luciferase activity
Description: The compounds of formula I were examined for activity in the inhibition of HCV RNA replication in a cellular assay aimed at identifying compounds that inhibit a HCV functional cellular replicating cell line, also known as HCV replicons. The cellular assay was based on a bicistronic expression construct, as described by Lohmann et al. (1999), Science vol. 285 pp. 110-113 with modifications described by Krieger et al. (2001), Journal of Virology 75: 4614-4624, in a multi-target screening strategy.
The assay utilized the stably transfected cell line Huh-7 luc/neo (hereafter referred to as Huh-Luc). This cell line harbors an RNA encoding a bicistronic expression construct comprising the wild type NS3-NS5B regions of HCV type 1b translated from an Internal Ribosome Entry Site (IRES) from encephalomyocarditis virus (EMCV), preceded by a reporter portion (FfL-luciferase), and a selectable marker portion (neoR, neomycine phosphotransferase). The construct is bordered by 5′ and 3′ NTRs (non-translated regions) from HCV type 1b. Continued culture of the replicon cells in the presence of G418 (neo^R) is dependent on the replication of the HCV RNA. The stably transfected replicon cells that express HCV RNA, which replicates autonomously and to high levels, encoding inter alia luciferase, were used for screening the antiviral compounds.
The replicon cells were plated in 384 well plates in the presence of the test and control compounds which were added in various concentrations. Following an incubation of three days, HCV replication was measured by assaying luciferase activity (using standard luciferase assay substrates and reagents and a Perkin Elmer ViewLux™ ultraHTS microplate imager). Replicon cells in the control cultures have high luciferase expression in the absence of any inhibitor. The inhibitory activity of the compound on luciferase activity was monitored on the Huh-Luc cells, enabling a dose-response curve for each test compound. EC50 values were then calculated, which value represents the amount of the compound required to decrease the level of detected luciferase activity by 50%, or more specifically, the ability of the genetically linked HCV replicon RNA to replicate.

Compound: C[C@H](NP(=O)(OC[C@H]1O[C@@H](n2ccc(=O)[nH]c2=O)C2(CC2)[C@@H]1O)Oc1ccc(Cl)cc1)C(=O)OCc1ccccc1 (single isomer, unassigned) [Compound 7a]
- CC50 [1]: > 50 µM
- EC50 [2]: > 60 µM
- CC50 at 3 days [3]: 58.4 µM
- EC50 [4]: 10.9 µM

Compound: C[C@H](NP(=O)(OC[C@H]1O[C@@H](n2ccc(=O)[nH]c2=O)C2(CC2)[C@@H]1O)Oc1cccc2ccccc12)C(=O)OCc1ccccc1 (some centres unmarked) [Compound 1]
- CC50 [1]: > 32 µM
- EC50 [2]: > 50 µM
- CC50 at 3 days [3]: > 98 µM
- EC50 ([4]; Hepatitis C virus, Huh-7, 72 h): 2.8 µM

Compound: Cc1cc(OP(=O)(N[C@@H](C)C(=O)OCc2ccccc2)OC[C@H]2O[C@@H](n3ccc(=O)[nH]c3=O)C3(CC3)[C@@H]2O)c(C(C)C)cc1Cl (some centres unmarked) [Compound 2]
- CC50 [1]: > 32 µM
- EC50 [2]: > 50 µM
- CC50 at 3 days [3]: > 32 µM
- EC50 ([4]; Hepatitis C virus, Huh-7, 72 h): 14.3 µM

Compound: CC(C)OC(=O)[C@H](C)NP(=O)(OC[C@H]1O[C@@H](n2ccc(=O)[nH]c2=O)C2(CC2)[C@@H]1O)Oc1ccccc1 (some centres unmarked) [Compound 3]
- CC50 [1]: > 98 µM
- EC50 [2]: > 98 µM
- CC50 at 3 days [3]: > 98 µM
- EC50 ([4]; Hepatitis C virus, Huh-7, 72 h): 9.6 µM

Compound: CC(C)(NP(=O)(OC[C@H]1O[C@@H](n2ccc(=O)[nH]c2=O)C2(CC2)[C@@H]1O)Oc1ccccc1)C(=O)OCc1ccccc1 (some centres unmarked) [Compound 4]
- CC50 [1]: > 98 µM
- EC50 [2]: > 98 µM
- CC50 at 3 days [3]: > 98 µM
- EC50 ([4]; Hepatitis C virus, Huh-7, 72 h): 23.9 µM

Compound: CCOC(=O)[C@H](C)NP(=O)(OC[C@H]1O[C@@H](n2ccc(=O)[nH]c2=O)C2(CC2)[C@@H]1O)Oc1ccccc1 (some centres unmarked) [Compound 5]
- CC50 [1]: > 98 µM
- EC50 [2]: > 90 µM
- CC50 at 3 days [3]: > 98 µM
- EC50 ([4]; Hepatitis C virus, Huh-7, 72 h): 9.2 µM

Compound: O=C(CNP(=O)(OC[C@H]1O[C@@H](n2ccc(=O)[nH]c2=O)C2(CC2)[C@@H]1O)Oc1cccc2ccccc12)OCc1ccccc1 (some centres unmarked) [Compound 6]
- CC50 [1]: > 98 µM
- EC50 [2]: > 90 µM
- CC50 at 3 days [3]: > 98 µM
- EC50 ([4]; Hepatitis C virus, Huh-7, 72 h): 16.5 µM

Compound: C[C@H](NP(=O)(OC[C@H]1O[C@@H](n2ccc(=O)[nH]c2=O)C2(CC2)[C@@H]1O)Oc1ccc(Cl)cc1)C(=O)OCc1ccccc1 (some centres unmarked) [Compound 7]
- CC50 [1]: > 64 µM
- EC50 [2]: > 90 µM
- CC50 at 3 days [3]: > 90 µM
- EC50 ([4]; Hepatitis C virus, Huh-7, 72 h): 6.1 µM

Compound: CCOC(=O)[C@H](C)NP(=O)(OC[C@H]1O[C@@H](n2ccc(=O)[nH]c2=O)C2(CC2)[C@@H]1O)Oc1ccc(Cl)cc1 (some centres unmarked) [Compound 8]
- CC50 [1]: > 98 µM
- EC50 [2]: > 98 µM
- CC50 at 3 days [3]: > 98 µM
- EC50 ([4]; Hepatitis C virus, Huh-7, 72 h): 5.9 µM

Compound: C[C@H](NP(=O)(OC[C@H]1O[C@@H](n2ccc(=O)[nH]c2=O)C2(CC2)[C@@H]1O)Oc1ccccc1)C(=O)OCc1ccccc1 (some centres unmarked) [Compound 9]
- CC50 [1]: > 98 µM
- EC50 [2]: > 85 µM
- CC50 at 3 days [3]: > 98 µM
- EC50 ([4]; Hepatitis C virus, Huh-7, 72 h): 2.9 µM

Compound: CCCC(CCC)COC(=O)[C@H](C)NP(=O)(OC[C@H]1O[C@@H](n2ccc(=O)[nH]c2=O)C2(CC2)[C@@H]1O)Oc1ccccc1 (some centres unmarked) [Compound 10]
- CC50 [1]: 29 µM
- EC50 [2]: > 60 µM
- CC50 at 3 days [3]: > 32 µM
- EC50 ([4]; Hepatitis C virus, Huh-7, 72 h): 2.8 µM

Compound: C[C@H](NP(=O)(OC[C@H]1O[C@@H](n2ccc(=O)[nH]c2=O)C2(CC2)[C@@H]1O)Oc1ccccc1)C(=O)OCC(C)(C)C (some centres unmarked) [Compound 11]
- CC50 [1]: > 98 µM
- EC50 [2]: > 98 µM
- CC50 at 3 days [3]: > 98 µM
- EC50 ([4]; Hepatitis C virus, Huh-7, 72 h): 2.8 µM

Compound: CCCCOC(=O)[C@H](C)NP(=O)(OC[C@H]1O[C@@H](n2ccc(=O)[nH]c2=O)C2(CC2)[C@@H]1O)Oc1ccccc1 (some centres unmarked) [Compound 12]
- CC50 [1]: > 98 µM
- EC50 [2]: > 98 µM
- CC50 at 3 days [3]: > 98 µM
- EC50 ([4]; Hepatitis C virus, Huh-7, 72 h): 3.1 µM

Compound: CC(C)COC(=O)[C@H](C)NP(=O)(OC[C@H]1O[C@@H](n2ccc(=O)[nH]c2=O)C2(CC2)[C@@H]1O)Oc1ccccc1 (some centres unmarked) [Compound 13]
- CC50 [1]: > 98 µM
- EC50 [2]: > 98 µM
- CC50 at 3 days [3]: > 98 µM
- EC50 ([4]; Hepatitis C virus, Huh-7, 72 h): 3.2 µM

Compound: C[C@H](NP(=O)(OC[C@H]1O[C@@H](n2ccc(=O)[nH]c2=O)C2(CC2)[C@@H]1O)Oc1ccccc1)C(=O)OC1CCCC1 (some centres unmarked) [Compound 14]
- CC50 [1]: > 98 µM
- EC50 [2]: > 98 µM
- CC50 at 3 days [3]: > 98 µM
- EC50 ([4]; Hepatitis C virus, Huh-7, 72 h): 3.3 µM

Compound: CCOC(=O)c1ccccc1OP(=O)(N[C@@H](C)C(=O)OCc1ccccc1)OC[C@H]1O[C@@H](n2ccc(=O)[nH]c2=O)C2(CC2)[C@@H]1O (some centres unmarked) [Compound 34]
- CC50 at 3 days [3]: > 98 µM
- EC50 ([4]; Hepatitis C virus, Huh-7, 72 h): 11 µM
